# Patent publication US20120157439A1, “RAF INHIBITOR COMPOUNDS AND METHODS OF USE THEREOF” (GENENTECH, INC., priority 2009, published 2012)
# Read-outs that look alike come from different tables or passages of the source.
# Target: T1, V600E full-length B-Raf (Homo sapiens, UniProt P15056, V600E)
# T1 construct: 1 μM FSBA-MEK and 20 nM V600E full-length B-Raf; made in house; host or cells: sf9 insect cells (baculovirus)
# Assay: B-Raf IC50 Assay (B-RAF V600E inhibition assay, Example A)
# Format: biochemical
# How it was run: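 Full-length V600E B-Raf (20 nM, from Sf9 baculovirus) was preincubated 15 min with 1 μM FSBA-modified wild-type MEK in pH 7.2 Pipes/KCl/MgCl2 buffer, then started with 4 μM ATP plus [γ-33P]ATP. After 60 min at 22 °C, TCA-quenched product was filter-captured and 33P incorporation counted by scintillation.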
# [1] = B-Raf V600E assay of Example A: less than 100 nM, read-out: IC50
# [2] = B-Raf V600E assay of Example A: less than about 1 μM, read-out: IC50
# [3] = incorporation of radio labeled phosphate from [γ-33P]ATP into FSBA-modified wild-type MEK, 4 μM ATP, 20 nM V600E full-length B-Raf, 60-minute incubation, 22° C., read-out: BRAF V600E IC50
# T1 sequence (P15056 whole entry V600E): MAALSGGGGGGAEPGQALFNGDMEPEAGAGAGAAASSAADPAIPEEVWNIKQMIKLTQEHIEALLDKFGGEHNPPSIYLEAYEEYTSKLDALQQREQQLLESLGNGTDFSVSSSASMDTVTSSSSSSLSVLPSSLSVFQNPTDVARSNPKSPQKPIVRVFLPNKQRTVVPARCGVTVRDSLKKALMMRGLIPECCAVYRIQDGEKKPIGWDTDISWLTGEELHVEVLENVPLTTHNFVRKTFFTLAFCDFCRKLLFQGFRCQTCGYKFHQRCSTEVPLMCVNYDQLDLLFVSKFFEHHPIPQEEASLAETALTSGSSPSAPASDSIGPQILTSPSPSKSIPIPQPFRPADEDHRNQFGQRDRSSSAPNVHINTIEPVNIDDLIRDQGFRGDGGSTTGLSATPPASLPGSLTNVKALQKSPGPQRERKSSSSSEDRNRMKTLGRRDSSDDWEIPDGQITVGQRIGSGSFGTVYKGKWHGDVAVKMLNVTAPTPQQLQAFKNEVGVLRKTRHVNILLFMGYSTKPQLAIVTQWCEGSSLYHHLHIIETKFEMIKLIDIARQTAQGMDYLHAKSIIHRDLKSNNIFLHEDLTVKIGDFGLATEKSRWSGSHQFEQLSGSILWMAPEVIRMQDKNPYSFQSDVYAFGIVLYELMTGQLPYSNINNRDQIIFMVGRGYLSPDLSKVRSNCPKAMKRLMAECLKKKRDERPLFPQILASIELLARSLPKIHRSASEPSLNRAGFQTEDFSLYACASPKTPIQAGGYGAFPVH
SMILES,IC50 [1],IC50 [2],IC50 [3]
"CCCS(=O)(=O)Nc1ccc(F)c(NC(=O)c2csc3c(NC)ncnc23)c1F [Example 46, 4-Methylamino-thieno[3,2-d]pyrimidine-7-carboxylic acid [2,6-difluoro-3-(propane-1-sulfonylamino)-phenyl]-amide]",< 100 nM,< 1000 nM,49.6 nM
"CC(C)CS(=O)(=O)Nc1ccc(Cl)c(NC(=O)c2csc3c(N)ncnc23)c1F [Example 22, 4-Amino-thieno[3,2-d] pyrimidine-7-carboxylic acid [6-chloro-2-fluoro-3-(2-methyl-propane-1-sulfonylamino)-phenyl]-amide]",< 100 nM,< 1000 nM,2 nM
"CCCS(=O)(=O)Nc1ccc(Cl)c(NC(=O)c2csc3c(NC4CCOCC4)ncnc23)c1Cl [Example 77, 4-(Tetrahydro-pyran-4-ylamino)-thieno[3,2-d] pyrimidine-7-carboxylic acid [2,6-dichloro-3-(propane-1-sulfonyl-amino)-phenyl]-amid]",< 100 nM,< 1000 nM,77.5 nM
"O=C(Nc1c(F)ccc(NS(=O)(=O)CCCF)c1F)c1csc2c(NC3CC3)ncnc12 [Example 64, 4-Cyclopropylamino-thieno[3,2-d]pyrimidine-7-carboxylic acid [2,6-difluoro-3-(3-fluoro-propane-1-sulfonylamino)-phenyl]amide]",< 100 nM,< 1000 nM,1.1 nM

# Results, then the compound that gave them:
IC50 [1],IC50 [2],IC50 [3],SMILES
< 100 nM,< 1000 nM,11.7 nM,"CCCS(=O)(=O)Nc1ccc(Cl)c(NC(=O)c2csc3c(NCC(F)(F)F)ncnc23)c1Cl [Example 78, 4-(2,2,2-Trifluoro-ethylamino)-thieno[3,2-d] pyrimidine-7-carboxylic acid [2,6-dichloro-3-(propane-1-sulfonyl-amino)-phenyl]-amide]"
–,< 1000 nM,115 nM,"CCCS(=O)(=O)Nc1ccc(F)c(NC(=O)c2c[nH]c3c(NC)ncnc23)c1F [Example 103, 4-Methylamino-5H-pyrrolo[3,2-d]pyrimidine-7-carboxylic acid [2,6-difluoro-3-(propane-1-sulfonylamino)-phenyl]-amide]"
